Source: ChEMBL document CHEMBL1671626, “In vitro profiling of ceftaroline against a collection of recent bacterial clinical isolates from across the United States” (2008)

How the values were obtained:
Assay type in all cases: functional
Klebsiella pneumoniae [1] = experiment: Antibacterial activity against ceftazidime-susceptible Klebsiella pneumoniae by CLSI M7-A7 broth microdilution method
Serratia marcescens [2] = experiment: Antibacterial activity against ceftazidime-susceptible Serratia marcescens assessed as susceptible isolates by CLSI M7-A7 broth microdilution method
Streptococcus pneumoniae [3] = experiment: Antibacterial activity against penicillin-susceptible Streptococcus pneumoniae by CLSI M7-A7 broth microdilution method
Streptococcus pyogenes [4] = experiment: Antibacterial activity against erythromycin-susceptible Streptococcus pyogenes by CLSI M7-A7 broth microdilution method
Citrobacter freundii [5] = experiment: Antibacterial activity against ceftazidime-susceptible Citrobacter freundii by CLSI M7-A7 broth microdilution method
Streptococcus viridans [6] = experiment: Antibacterial activity against penicillin-susceptible Streptococcus viridans assessed as susceptible isolates by CLSI M7-A7 broth microdilution method
Escherichia coli [7] = experiment: Antibacterial activity against ceftazidime-nonsusceptible Escherichia coli assessed as susceptible isolates by CLSI M7-A7 broth microdilution method
Staphylococcus aureus [8] = experiment: Antibacterial activity against methicillin-resistant Staphylococcus aureus assessed as susceptible isolates by CLSI M7-A7 broth microdilution method
Streptococcus viridans [9] = experiment: Antibacterial activity against penicillin-nonsusceptible Streptococcus viridans assessed as susceptible isolates by CLSI M7-A7 broth microdilution method
Enterococcus faecium = experiment: Antibacterial activity against vancomycin-resistant Enterococcus faecium by CLSI M7-A7 broth microdilution method
Moraxella catarrhalis = experiment: Antibacterial activity against beta lactamase-positive Moraxella catarrhalis assessed as susceptible isolates by CLSI M7-A7 broth microdilution method
Streptococcus agalactiae [10] = experiment: Antibacterial activity against erythromycin-nonsusceptible Streptococcus agalactiae assessed as susceptible isolates by CLSI M7-A7 broth microdilution method
Enterobacter cloacae [11] = experiment: Antibacterial activity against ceftazidime-nonsusceptible Enterobacter cloacae assessed as susceptible isolates by CLSI M7-A7 broth microdilution method
Streptococcus pneumoniae [12] = experiment: Antibacterial activity against penicillin-susceptible Streptococcus pneumoniae assessed as resistant isolates by CLSI M7-A7 broth microdilution method
Staphylococcus aureus [13] = experiment: Antibacterial activity against methicillin-resistant Staphylococcus aureus by CLSI M7-A7 broth microdilution method
Klebsiella pneumoniae [14] = experiment: Antibacterial activity against ceftazidime-nonsusceptible Klebsiella pneumoniae assessed as resistant isolates by CLSI M7-A7 broth microdilution method
Serratia marcescens [15] = experiment: Antibacterial activity against ceftazidime-susceptible Serratia marcescens by CLSI M7-A7 broth microdilution method
Streptococcus pyogenes [16] = experiment: Antibacterial activity against erythromycin-nonsusceptible Streptococcus pyogenes assessed as susceptible isolates by CLSI M7-A7 broth microdilution method
Enterobacter cloacae [17] = experiment: Antibacterial activity against ceftazidime-susceptible Enterobacter cloacae by CLSI M7-A7 broth microdilution method
Citrobacter freundii [18] = experiment: Antibacterial activity against ceftazidime-susceptible Citrobacter freundii assessed as susceptible isolates by CLSI M7-A7 broth microdilution method
Serratia marcescens [19] = experiment: Antibacterial activity against ceftazidime-susceptible Serratia marcescens assessed as resistant isolates by CLSI M7-A7 broth microdilution method
Citrobacter freundii [20] = experiment: Antibacterial activity against ceftazidime-nonsusceptible Citrobacter freundii assessed as resistant isolates by CLSI M7-A7 broth microdilution method
Streptococcus agalactiae [21] = experiment: Antibacterial activity against erythromycin-susceptible Streptococcus agalactiae assessed as susceptible isolates by CLSI M7-A7 broth microdilution method
Staphylococcus aureus [22] = experiment: Antibacterial activity against coagulase-negative and oxacillin-susceptible Staphylococcus aureus assessed as susceptible isolates by CLSI M7-A7 broth microdilution method
Streptococcus pneumoniae [23] = experiment: Antibacterial activity against penicillin-resistant Streptococcus pneumoniae assessed as susceptible isolates by CLSI M7-A7 broth microdilution method
Citrobacter freundii [24] = experiment: Antibacterial activity against ceftazidime-susceptible Citrobacter freundii assessed as resistant isolates by CLSI M7-A7 broth microdilution method
Enterobacteriaceae = experiment: Antibacterial activity against ceftazidime-nonsusceptible Enterobacteriaceae by CLSI M7-A7 broth microdilution method
Morganella morganii [25] = experiment: Antibacterial activity against ceftazidime-susceptible Morganella morganii assessed as resistant isolates by CLSI M7-A7 broth microdilution method
Staphylococcus aureus [26] = experiment: Antibacterial activity against coagulase-negative and oxacillin-resistant Staphylococcus aureus assessed as resistant isolates by CLSI M7-A7 broth microdilution method
Enterobacter cloacae [27] = experiment: Antibacterial activity against ceftazidime-nonsusceptible Enterobacter cloacae by CLSI M7-A7 broth microdilution method
Staphylococcus aureus [28] = experiment: Antibacterial activity against methicillin-susceptible Staphylococcus aureus assessed as susceptible isolates by CLSI M7-A7 broth microdilution method
Enterococcus faecalis [29] = experiment: Antibacterial activity against vancomycin-susceptible Enterococcus faecalis by CLSI M7-A7 broth microdilution method
Staphylococcus aureus [30] = experiment: Antibacterial activity against coagulase-negative and oxacillin-susceptible Staphylococcus aureus by CLSI M7-A7 broth microdilution method
Acinetobacter = experiment: Antibacterial activity against imipenem-susceptible Acinetobacter assessed as resistant isolates by CLSI M7-A7 broth microdilution method
Klebsiella pneumoniae [31] = experiment: Antibacterial activity against ceftazidime-nonsusceptible Klebsiella pneumoniae assessed as susceptible isolates by CLSI M7-A7 broth microdilution method
Morganella morganii [32] = experiment: Antibacterial activity against ceftazidime-susceptible Morganella morganii by CLSI M7-A7 broth microdilution method
Escherichia coli [33] = experiment: Antibacterial activity against ceftazidime-susceptible Escherichia coli by CLSI M7-A7 broth microdilution method
Streptococcus pyogenes [34] = experiment: Antibacterial activity against erythromycin-susceptible Streptococcus pyogenes assessed as susceptible isolates by CLSI M7-A7 broth microdilution method
Streptococcus viridans [35] = experiment: Antibacterial activity against penicillin-susceptible Streptococcus viridans assessed as resistant isolates by CLSI M7-A7 broth microdilution method
Enterococcus faecalis [36] = experiment: Antibacterial activity against vancomycin-resistant Enterococcus faecalis by CLSI M7-A7 broth microdilution method
Providencia sp. = experiment: Antibacterial activity against ceftazidime-susceptible Providencia sp. by CLSI M7-A7 broth microdilution method
Morganella morganii [37] = experiment: Antibacterial activity against ceftazidime-susceptible Morganella morganii assessed as susceptible isolates by CLSI M7-A7 broth microdilution method
Proteus mirabilis = experiment: Antibacterial activity against ceftazidime-susceptible Proteus mirabilis assessed as susceptible isolates by CLSI M7-A7 broth microdilution method
Pasteurella multocida = experiment: Antibacterial activity against Pasteurella multocida by CLSI M7-A7 broth microdilution method

## C[C@H]1COc2c(N3CCN(C)CC3)c(F)cc3c(=O)c(C(=O)O)cn1c23.C[C@H]1COc2c(N3CCN(C)CC3)c(F)cc3c(=O)c(C(=O)O)cn1c23.O [LEVOFLOXACIN]
Klebsiella pneumoniae [1]
  MIC50: 0.06 µg/mL
  MIC90: 0.25 µg/mL
Serratia marcescens [2]
  Activity: 98.3%
Streptococcus pneumoniae [3]
  MIC50: 0.5 µg/mL
  MIC90: 1 µg/mL
Streptococcus pyogenes [4]
  MIC50: 0.5 µg/mL
  MIC90: 1 µg/mL
Citrobacter freundii [5]
  MIC: ≤ 0.03 µg/mL
  MIC50: ≤ 0.03 µg/mL
  MIC90: 1 µg/mL
Streptococcus viridans [6]
  Activity: 100%
Escherichia coli [7]
  Activity: 14.3%
Staphylococcus aureus [8]
  Activity: 25.6%
Streptococcus viridans [9]
  Activity: 92.9%
Enterococcus faecium
  MIC: > 16 µg/mL
  MIC50: > 16 µg/mL
  MIC90: > 16 µg/mL
Moraxella catarrhalis
  Activity: 100%
Streptococcus agalactiae [10]
  Activity: 97.6%
Enterobacter cloacae [11]
  Activity: 62.9%
Streptococcus pneumoniae [12]
  Activity: 1.5%
Staphylococcus aureus [13]
  MIC50: 8 µg/mL
  MIC90: > 16 µg/mL
Klebsiella pneumoniae [14]
  Activity: 54.5%
Serratia marcescens [15]
  MIC50: 0.12 µg/mL
  MIC90: 1 µg/mL
Streptococcus pyogenes [16]
  Activity: 100%
Enterobacter cloacae [17]
  MIC: ≤ 0.03 µg/mL
  MIC50: ≤ 0.03 µg/mL
  MIC90: 0.5 µg/mL
Citrobacter freundii [18]
  Activity: 98%
Serratia marcescens [19]
  Activity: 1.7%
Citrobacter freundii [20]
  Activity: 24.2%
Streptococcus agalactiae [21]
  Activity: 100%
Staphylococcus aureus [22]
  Activity: 81.6%
Streptococcus pneumoniae [23]
  Activity: 99.3%
Citrobacter freundii [24]
  Activity: 0%
Enterobacteriaceae
  MIC50: 8 µg/mL
  MIC90: > 16 µg/mL
Morganella morganii [25]
  Activity: 20.6%
Staphylococcus aureus [26]
  Activity: 73.9%
Enterobacter cloacae [27]
  MIC50: 0.12 µg/mL
  MIC90: 1 µg/mL
Staphylococcus aureus [28]
  Activity: 83.9%
Enterococcus faecalis [29]
  MIC50: 1 µg/mL
  MIC90: > 16 µg/mL
Staphylococcus aureus [30]
  MIC50: 0.12 µg/mL
  MIC90: 8 µg/mL
Acinetobacter
  Activity: 36.2%
Klebsiella pneumoniae [31]
  Activity: 37.9%
Morganella morganii [32]
  MIC50: ≤ 0.03 µg/mL
  MIC90: 8 µg/mL
Escherichia coli [33]
  MIC50: ≤ 0.03 µg/mL
  MIC90: 16 µg/mL
Streptococcus pyogenes [34]
  Activity: 100%
Streptococcus viridans [35]
  Activity: 0%
Enterococcus faecalis [36]
  MIC50: > 16 µg/mL
Providencia sp.
  MIC50: 0.25 µg/mL
  MIC90: > 16 µg/mL
Morganella morganii [37]
  Activity: 76.5%
Proteus mirabilis
  Activity: 75.9%
Pasteurella multocida
  MIC50: ≤ 0.015 µg/mL
  MIC90: 0.03 µg/mL
